Earlier results in patent EP4599698A1, “PRODUCTS COMPRISING SENSORY AGENTS” (Nicoventures Trading Limited, priority 2024, dated 2025).

Tests used:
[1] = when isolated; converts via isomerization into trans-bixin (β-bixin)
TRP melastatin 8/TRPM8 = TRP melastatin 8/TRPM8 (Homo sapiens, UniProt Q7Z2W7)
[2] = molecular target: transient receptor potential vanilloid 1/TRPV1 (Homo sapiens, UniProt Q8NER1)
TRP ankyrin 1/TRPA1 = TRP ankyrin 1/TRPA1 (Homo sapiens, UniProt O75762)
Sequence of TRP ankyrin 1/TRPA1 (O75762 whole entry): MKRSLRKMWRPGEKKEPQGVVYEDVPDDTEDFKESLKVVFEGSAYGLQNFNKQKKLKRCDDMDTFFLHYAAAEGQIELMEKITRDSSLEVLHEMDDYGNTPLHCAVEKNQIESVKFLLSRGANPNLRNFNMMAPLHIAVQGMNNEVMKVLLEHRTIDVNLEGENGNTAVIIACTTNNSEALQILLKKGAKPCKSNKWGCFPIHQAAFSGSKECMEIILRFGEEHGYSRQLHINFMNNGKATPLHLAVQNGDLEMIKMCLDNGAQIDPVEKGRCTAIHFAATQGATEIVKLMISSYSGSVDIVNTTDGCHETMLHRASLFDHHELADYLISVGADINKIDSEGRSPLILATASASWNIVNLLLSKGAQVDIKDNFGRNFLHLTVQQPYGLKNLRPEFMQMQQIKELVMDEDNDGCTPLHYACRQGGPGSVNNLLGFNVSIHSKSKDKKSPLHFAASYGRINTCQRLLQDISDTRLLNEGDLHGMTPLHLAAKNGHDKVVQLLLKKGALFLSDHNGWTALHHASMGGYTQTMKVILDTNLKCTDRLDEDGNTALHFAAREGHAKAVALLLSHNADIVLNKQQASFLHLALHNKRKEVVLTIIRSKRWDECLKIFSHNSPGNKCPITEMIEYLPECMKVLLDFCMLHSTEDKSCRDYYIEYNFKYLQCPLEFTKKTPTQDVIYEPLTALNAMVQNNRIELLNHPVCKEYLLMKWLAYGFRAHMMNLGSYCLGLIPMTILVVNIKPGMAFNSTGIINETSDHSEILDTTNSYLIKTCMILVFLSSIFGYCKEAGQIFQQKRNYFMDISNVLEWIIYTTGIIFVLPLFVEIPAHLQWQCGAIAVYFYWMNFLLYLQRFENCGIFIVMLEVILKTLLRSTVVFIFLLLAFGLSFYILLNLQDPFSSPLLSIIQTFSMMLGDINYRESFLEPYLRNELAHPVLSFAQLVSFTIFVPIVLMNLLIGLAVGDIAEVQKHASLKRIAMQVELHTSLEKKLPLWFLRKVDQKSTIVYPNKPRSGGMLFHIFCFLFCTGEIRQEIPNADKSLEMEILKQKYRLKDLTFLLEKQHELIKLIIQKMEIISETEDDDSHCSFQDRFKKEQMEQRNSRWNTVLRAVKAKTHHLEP

Sequence of TRP melastatin 8/TRPM8 (Q7Z2W7 whole entry): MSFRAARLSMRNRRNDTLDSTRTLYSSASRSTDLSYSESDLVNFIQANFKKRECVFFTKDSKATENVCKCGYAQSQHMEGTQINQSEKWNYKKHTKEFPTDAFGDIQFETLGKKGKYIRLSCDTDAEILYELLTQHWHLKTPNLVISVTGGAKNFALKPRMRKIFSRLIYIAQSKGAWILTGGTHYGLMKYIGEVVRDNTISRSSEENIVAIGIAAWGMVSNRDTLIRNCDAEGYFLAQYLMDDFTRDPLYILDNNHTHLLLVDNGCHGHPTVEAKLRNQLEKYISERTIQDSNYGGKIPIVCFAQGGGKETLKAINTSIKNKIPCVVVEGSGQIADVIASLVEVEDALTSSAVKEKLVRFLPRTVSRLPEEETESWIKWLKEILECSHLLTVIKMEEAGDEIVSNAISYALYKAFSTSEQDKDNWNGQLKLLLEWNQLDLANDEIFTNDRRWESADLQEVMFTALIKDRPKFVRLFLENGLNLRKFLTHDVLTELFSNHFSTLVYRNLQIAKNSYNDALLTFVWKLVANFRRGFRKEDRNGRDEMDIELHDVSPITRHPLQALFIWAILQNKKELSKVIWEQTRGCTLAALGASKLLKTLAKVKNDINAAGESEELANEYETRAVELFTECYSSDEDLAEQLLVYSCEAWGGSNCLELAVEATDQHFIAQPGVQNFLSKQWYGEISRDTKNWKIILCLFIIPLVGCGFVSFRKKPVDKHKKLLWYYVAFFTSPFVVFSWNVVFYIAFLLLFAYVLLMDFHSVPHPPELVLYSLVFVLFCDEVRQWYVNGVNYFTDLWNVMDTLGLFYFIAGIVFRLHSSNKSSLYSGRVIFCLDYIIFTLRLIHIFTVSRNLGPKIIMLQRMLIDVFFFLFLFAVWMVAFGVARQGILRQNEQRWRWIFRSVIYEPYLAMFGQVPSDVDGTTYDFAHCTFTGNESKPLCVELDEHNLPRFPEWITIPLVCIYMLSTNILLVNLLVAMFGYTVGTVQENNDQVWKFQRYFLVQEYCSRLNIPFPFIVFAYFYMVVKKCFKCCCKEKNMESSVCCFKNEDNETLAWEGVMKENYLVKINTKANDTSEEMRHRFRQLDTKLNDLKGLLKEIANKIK
Sequence of transient receptor potential vanilloid 1/TRPV1 (Q8NER1 whole entry): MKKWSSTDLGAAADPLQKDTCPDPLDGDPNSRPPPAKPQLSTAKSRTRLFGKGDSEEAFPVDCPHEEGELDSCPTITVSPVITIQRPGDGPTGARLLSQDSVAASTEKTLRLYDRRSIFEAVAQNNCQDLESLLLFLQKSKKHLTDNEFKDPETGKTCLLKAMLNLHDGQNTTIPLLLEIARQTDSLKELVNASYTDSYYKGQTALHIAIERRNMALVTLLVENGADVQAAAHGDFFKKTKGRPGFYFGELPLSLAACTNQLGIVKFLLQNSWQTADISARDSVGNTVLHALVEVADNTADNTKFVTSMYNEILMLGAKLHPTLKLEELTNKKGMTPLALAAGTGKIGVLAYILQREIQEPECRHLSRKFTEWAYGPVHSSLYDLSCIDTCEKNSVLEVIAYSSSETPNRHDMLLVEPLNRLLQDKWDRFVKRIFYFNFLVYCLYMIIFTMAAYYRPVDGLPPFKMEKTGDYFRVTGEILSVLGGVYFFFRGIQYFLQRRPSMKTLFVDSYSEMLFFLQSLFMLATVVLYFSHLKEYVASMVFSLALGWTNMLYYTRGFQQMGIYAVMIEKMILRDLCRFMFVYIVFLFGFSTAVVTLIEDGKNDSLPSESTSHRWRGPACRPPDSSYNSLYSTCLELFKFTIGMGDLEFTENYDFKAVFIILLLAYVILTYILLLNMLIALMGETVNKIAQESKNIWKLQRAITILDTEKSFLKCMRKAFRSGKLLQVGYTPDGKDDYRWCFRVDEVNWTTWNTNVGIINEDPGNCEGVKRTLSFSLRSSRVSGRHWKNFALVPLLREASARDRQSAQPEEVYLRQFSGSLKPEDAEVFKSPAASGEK

COC(=O)/C=C/C(C)=C\C=C\C(C)=C\C=C\C=C(C)\C=C\C=C(C)\C=C\C(=O)O [bixin, (2E,4E,6E,8E,10E,12E,14E,16Z,18E)-20-methoxy-4,8,13,17-tetramethyl-20-oxoicosa-2,4,6,8,10,12,14,16,18-nonaenoic acid]
solubility in water: insoluble in water | chemical stability [1]: chemically unstable when isolated

C=CC(C)(O)CCC=C(C)C (stereo not shown) [Linalool]
agonist activity at TRPM8 (TRP melastatin 8/TRPM8): weak agonist | stimulation of TRPA1-containing neurons (TRPA1-containing neurons): shown to stimulate

CC(/C=C/C=C(C)/C=C/C(=O)O)=C\C=C\C=C(C)\C=C\C=C(C)\C=C\C(=O)O (stereo in doubt) [norbixin, (2E,4E,6E,8E,10E,12E,14E,16E,18E)-4,8,13,17-tetramethylicosa-2,4,6,8,10,12,14,16,18-nonaenedioic acid]
solubility in water: water soluble

C/C=C/C=C/C=C\CC/C=C/C(=O)NCC(C)(C)O [Hydroxyl-α-sanshool]
agonist activity at TRPV1 [2]: agonist | agonist activity at TRPA1 (TRP ankyrin 1/TRPA1): agonist
